Measurements from ChEMBL document CHEMBL5120957, “SARS-CoV-2: Novel Therapeutic Approaches for Diagnosis and Treatment” (ACS Med Chem Lett, 2022).

target: Integrin alpha-V/beta-6 (Homo sapiens, UniProt P06756+P18564); assay: Inhibition of recombinant human alphavbeta6 integrin incubated for 2 hrs by microplate reader assay; assay type: protein-complex assay
Sequence (P06756 31-889 limits assumed): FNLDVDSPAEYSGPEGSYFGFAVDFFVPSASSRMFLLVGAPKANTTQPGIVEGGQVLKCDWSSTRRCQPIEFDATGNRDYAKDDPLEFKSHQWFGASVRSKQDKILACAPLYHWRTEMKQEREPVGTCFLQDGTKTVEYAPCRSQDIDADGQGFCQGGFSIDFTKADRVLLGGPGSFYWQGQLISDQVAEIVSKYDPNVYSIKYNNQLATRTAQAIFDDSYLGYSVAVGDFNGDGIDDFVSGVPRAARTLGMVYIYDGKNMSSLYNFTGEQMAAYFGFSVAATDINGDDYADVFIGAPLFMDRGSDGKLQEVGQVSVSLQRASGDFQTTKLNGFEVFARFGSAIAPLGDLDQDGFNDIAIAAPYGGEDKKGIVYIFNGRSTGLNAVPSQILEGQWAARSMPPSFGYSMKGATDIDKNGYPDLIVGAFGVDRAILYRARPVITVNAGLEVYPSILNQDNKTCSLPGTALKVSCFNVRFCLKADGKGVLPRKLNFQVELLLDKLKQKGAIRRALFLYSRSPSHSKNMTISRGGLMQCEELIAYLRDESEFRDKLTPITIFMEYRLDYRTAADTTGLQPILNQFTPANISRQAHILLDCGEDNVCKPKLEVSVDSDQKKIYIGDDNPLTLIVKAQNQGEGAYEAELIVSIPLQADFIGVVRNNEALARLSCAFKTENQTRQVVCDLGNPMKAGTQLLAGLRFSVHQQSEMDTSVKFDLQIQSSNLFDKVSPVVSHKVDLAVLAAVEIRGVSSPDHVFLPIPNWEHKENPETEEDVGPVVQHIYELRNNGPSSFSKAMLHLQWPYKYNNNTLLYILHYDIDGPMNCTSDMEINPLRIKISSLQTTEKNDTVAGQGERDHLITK
Sequence (P06756 891-1048 limits assumed): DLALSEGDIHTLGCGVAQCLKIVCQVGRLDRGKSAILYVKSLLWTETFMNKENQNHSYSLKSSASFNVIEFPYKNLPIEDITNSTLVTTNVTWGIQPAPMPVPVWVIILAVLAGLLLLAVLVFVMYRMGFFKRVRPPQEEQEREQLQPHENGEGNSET
Sequence (P18564 22-788 limits assumed): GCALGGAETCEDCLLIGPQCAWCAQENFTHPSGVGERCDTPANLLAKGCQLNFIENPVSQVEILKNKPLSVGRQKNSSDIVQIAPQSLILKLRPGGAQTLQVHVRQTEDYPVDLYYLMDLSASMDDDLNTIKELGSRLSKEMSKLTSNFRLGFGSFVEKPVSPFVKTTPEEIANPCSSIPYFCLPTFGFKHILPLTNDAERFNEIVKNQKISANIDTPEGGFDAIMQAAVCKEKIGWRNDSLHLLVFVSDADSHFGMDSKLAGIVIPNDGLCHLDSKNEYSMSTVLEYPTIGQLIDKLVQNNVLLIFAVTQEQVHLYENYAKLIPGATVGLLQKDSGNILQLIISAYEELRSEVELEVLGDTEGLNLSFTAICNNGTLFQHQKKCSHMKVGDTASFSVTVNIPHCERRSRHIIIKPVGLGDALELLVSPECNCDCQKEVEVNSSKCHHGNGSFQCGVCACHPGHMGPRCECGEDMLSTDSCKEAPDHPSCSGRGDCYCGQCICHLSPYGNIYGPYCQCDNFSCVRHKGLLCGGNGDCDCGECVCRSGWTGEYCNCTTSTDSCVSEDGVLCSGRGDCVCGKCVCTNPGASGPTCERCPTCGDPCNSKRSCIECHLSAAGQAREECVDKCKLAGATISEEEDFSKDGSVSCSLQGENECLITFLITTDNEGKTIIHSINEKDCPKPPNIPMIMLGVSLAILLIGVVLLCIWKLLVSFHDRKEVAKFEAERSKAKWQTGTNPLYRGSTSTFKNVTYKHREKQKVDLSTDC

First: COCCN(CCCCc1ccc2c(n1)NCCC2)CC[C@H](Nc1ncnc2cc(C(F)(F)F)ccc12)C(=O)O
Second: COCCN(CCCCc1ccc2c(n1)NCCC2)CC[C@H](Nc1ncnc2cc(F)ccc12)C(=O)O
The IC50 of the first is higher: 50 nM for the first, under 50 nM for the second.

`CO[C@H](C)CN(CCCCc1ccc2c(n1)NCCC2)CC[C@H](Nc1ncnc2ccccc12)C(=O)O` and `COCCN(CCCCc1ccc2c(n1)NCCC2)CC[C@H](Nc1ncnc2ccccc12)C(=O)O` [BEXOTEGRAST] cannot be ordered by IC50: under 50 nM for the first, under 50 nM for the second.

`O=C(O)[C@H](CCN(CCCCc1ccc2c(n1)NCCC2)CCC(F)F)Nc1ncnc2ccccc12` and `COCCN(CCCCc1ccc2c(n1)NCCC2)CC[C@H](Nc1cc(-n2cccn2)ncn1)C(=O)O` cannot be ordered by IC50: under 50 nM for the first, under 50 nM for the second.
